Experimental data taken from patent US10351566B2, “Therapeutic compounds for pain and synthesis thereof” (priority 2015, dated 2019).
Like-named read-outs stand apart in the source and are kept apart here.

Legend:
in vitro [1] = assay type: in vitro ADME; conditions: human, Caco-2
Experimental: Formula 1 was evaluated for cellular permeability using Caco-2 cell monolayers. Both the apical-to-basolateral (A-B) and basolateral-to-apical (B-A) bidirectional permeability and efflux ratios were evaluated in the assay.

in vitro [2] = assay type: in vitro ADME; conditions: 1 μM; for microsomal CLint: read-out: intrinsic clearance (CLint)
Experimental: (§1) Metabolic stability studies in mouse, rat and human liver microsomes were performed at a compound concentration of 1 μM.

[3] = assay type: in vitro ADME, mouse, rat, human
Experimental: as §1
A total of five metabolites were detected in all three species. […] Due to the similarity in the plasma stability of the compound in the mouse and the human plasma, and toxicology studies would preferably be performed in the mouse.

CYP1A2 = target: T1, CYP1A2 (Homo sapiens, UniProt P05177); assay: Reversible CYP450 inhibition, cocktail format; assay type: biochemical; conditions: 1A2, reversible inhibition, preliminary
T1 sequence (P05177 1-516): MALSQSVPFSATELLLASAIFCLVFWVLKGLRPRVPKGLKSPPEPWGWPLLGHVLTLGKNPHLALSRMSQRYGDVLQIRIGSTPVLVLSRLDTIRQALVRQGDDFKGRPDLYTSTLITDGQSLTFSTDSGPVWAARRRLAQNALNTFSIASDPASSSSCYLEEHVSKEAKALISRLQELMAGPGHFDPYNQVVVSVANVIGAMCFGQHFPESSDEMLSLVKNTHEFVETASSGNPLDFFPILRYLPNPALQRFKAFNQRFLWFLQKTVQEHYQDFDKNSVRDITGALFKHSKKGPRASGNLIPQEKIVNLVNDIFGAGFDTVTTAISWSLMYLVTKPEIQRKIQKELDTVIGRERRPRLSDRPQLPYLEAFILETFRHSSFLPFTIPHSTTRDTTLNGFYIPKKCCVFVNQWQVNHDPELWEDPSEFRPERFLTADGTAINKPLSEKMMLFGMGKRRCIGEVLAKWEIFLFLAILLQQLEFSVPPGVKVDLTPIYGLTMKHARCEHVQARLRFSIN
Experimental: (§2) Preliminary in vitro studies on reversible inhibition of major CYP450 enzymes were conducted in a cocktail format for this compound. The IC50 values were 4 μM for CYP2C9, 5 μM for CYP2C19, and greater than 10 μM for CYP3A4, 2C8, 2D6, and 1A2. If total plasma concentrations in humans are less than 0.4 μM, then in vivo drug interaction studies in clinical trials may not be required for this compound.

CYP2C19 = CYP2C19 (Homo sapiens, UniProt P33261); assay: Reversible CYP450 inhibition, cocktail format; assay type: biochemical; conditions: preliminary
Chain of CYP2C19 (P33261 whole entry): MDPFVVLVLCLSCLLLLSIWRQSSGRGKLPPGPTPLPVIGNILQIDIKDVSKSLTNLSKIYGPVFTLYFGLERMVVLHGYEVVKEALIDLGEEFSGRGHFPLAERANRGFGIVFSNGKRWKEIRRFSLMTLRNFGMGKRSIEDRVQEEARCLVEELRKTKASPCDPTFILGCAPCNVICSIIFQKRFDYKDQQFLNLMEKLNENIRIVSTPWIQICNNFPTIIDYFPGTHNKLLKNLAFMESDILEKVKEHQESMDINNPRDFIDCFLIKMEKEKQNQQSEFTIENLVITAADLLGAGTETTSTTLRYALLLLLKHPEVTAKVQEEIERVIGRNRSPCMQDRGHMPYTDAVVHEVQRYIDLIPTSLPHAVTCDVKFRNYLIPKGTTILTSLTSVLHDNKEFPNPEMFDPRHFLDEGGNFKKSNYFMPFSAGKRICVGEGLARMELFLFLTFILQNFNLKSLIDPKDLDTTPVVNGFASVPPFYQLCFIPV
Experimental: as §2

CYP2C8 = target: T2, CYP2C8 (Homo sapiens, UniProt P10632); assay: Reversible CYP450 inhibition, cocktail format; assay type: biochemical; conditions: 2C8, reversible inhibition, preliminary
T2 sequence (P10632 1-490): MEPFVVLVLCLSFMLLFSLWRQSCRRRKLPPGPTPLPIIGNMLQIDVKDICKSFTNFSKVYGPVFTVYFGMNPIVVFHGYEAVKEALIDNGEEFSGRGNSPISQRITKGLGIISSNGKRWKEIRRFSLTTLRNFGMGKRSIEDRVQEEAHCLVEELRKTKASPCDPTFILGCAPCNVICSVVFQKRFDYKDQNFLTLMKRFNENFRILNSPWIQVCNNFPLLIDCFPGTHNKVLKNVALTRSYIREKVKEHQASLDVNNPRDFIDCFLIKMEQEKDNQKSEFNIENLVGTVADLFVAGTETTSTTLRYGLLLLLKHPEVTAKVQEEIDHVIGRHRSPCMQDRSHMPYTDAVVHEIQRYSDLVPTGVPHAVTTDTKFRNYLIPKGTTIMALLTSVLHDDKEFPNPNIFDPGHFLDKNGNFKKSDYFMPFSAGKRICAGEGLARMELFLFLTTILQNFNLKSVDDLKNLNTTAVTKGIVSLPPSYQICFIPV
Experimental: as §2

CYP2C9 = CYP2C9 (Homo sapiens, UniProt P11712); assay: Reversible CYP450 inhibition, cocktail format; assay type: biochemical; conditions: preliminary
Chain of CYP2C9 (P11712 whole entry): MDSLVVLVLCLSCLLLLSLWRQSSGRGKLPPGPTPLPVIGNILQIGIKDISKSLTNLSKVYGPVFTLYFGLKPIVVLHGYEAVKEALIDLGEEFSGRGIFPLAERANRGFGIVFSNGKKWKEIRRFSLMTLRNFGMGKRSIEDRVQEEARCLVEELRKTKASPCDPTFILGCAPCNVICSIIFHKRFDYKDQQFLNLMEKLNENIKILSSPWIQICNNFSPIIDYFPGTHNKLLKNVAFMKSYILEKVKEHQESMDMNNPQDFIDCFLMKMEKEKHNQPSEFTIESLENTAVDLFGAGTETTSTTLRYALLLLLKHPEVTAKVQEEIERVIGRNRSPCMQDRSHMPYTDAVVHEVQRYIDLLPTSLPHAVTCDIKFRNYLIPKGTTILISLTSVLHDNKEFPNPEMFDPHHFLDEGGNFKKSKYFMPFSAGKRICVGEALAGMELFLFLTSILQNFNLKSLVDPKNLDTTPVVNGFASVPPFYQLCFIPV
Experimental: as §2

CYP2D6 = CYP2D6 (Homo sapiens, UniProt P10635); assay: Reversible CYP450 inhibition, cocktail format; assay type: biochemical; conditions: 2D6, reversible inhibition, preliminary
Chain of CYP2D6 (P10635 whole entry): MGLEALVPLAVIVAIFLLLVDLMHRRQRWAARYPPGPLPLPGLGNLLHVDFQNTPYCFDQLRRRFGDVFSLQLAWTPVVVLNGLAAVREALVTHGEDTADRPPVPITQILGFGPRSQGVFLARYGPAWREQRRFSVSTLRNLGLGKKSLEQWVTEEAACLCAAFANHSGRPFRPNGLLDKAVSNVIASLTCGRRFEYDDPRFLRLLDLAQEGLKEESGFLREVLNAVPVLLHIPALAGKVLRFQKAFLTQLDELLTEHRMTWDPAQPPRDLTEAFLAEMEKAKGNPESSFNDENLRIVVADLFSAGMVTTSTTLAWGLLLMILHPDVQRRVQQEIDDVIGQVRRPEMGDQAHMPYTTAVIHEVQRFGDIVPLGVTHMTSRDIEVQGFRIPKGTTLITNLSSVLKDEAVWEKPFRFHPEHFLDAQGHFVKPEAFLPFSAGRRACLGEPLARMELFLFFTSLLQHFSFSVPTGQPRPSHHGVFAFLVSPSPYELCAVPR
Experimental: as §2

CYP3A4 = CYP3A4 (Homo sapiens, UniProt P08684); assay: Reversible CYP450 inhibition, cocktail format; assay type: biochemical; conditions: preliminary
Chain of CYP3A4 (P08684 whole entry): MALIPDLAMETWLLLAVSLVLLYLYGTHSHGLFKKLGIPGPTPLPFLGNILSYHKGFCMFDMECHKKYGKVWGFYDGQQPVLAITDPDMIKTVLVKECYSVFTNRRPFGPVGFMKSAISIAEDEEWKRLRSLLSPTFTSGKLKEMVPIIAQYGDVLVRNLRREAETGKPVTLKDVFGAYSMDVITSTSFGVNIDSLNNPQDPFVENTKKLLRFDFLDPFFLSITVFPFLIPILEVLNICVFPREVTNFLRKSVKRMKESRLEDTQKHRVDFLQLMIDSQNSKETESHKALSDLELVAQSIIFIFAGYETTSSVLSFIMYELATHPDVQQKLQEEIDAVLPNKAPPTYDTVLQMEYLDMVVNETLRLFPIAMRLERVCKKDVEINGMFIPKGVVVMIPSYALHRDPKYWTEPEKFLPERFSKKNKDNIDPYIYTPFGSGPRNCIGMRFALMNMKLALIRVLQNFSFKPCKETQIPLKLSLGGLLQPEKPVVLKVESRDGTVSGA
Experimental: as §2

[4] = assay type: in vivo; conditions: mice
Experimental: Fecal excretion of the parent compound was evaluated following oral administration of Formula 1 in mice at a dose of 50 mg/kg and intravenous administration at a dose of 5 mg/kg. Peak concentrations in feces were 150 μg/g and 33 μg/g from oral and intravenous dosing, respectively. These peak concentrations were generally achieved within 1 h post-oral dosing and within 5 min post-intravenous doing. The concentrations remained high (greater than 1 μg/g) even after 8 h post-dosing by both administration routes (FIG. 18).

hERG = hERG (Homo sapiens, UniProt Q12809); assay: hERG in vitro safety pharmacology
Chain of hERG (Q12809 whole entry): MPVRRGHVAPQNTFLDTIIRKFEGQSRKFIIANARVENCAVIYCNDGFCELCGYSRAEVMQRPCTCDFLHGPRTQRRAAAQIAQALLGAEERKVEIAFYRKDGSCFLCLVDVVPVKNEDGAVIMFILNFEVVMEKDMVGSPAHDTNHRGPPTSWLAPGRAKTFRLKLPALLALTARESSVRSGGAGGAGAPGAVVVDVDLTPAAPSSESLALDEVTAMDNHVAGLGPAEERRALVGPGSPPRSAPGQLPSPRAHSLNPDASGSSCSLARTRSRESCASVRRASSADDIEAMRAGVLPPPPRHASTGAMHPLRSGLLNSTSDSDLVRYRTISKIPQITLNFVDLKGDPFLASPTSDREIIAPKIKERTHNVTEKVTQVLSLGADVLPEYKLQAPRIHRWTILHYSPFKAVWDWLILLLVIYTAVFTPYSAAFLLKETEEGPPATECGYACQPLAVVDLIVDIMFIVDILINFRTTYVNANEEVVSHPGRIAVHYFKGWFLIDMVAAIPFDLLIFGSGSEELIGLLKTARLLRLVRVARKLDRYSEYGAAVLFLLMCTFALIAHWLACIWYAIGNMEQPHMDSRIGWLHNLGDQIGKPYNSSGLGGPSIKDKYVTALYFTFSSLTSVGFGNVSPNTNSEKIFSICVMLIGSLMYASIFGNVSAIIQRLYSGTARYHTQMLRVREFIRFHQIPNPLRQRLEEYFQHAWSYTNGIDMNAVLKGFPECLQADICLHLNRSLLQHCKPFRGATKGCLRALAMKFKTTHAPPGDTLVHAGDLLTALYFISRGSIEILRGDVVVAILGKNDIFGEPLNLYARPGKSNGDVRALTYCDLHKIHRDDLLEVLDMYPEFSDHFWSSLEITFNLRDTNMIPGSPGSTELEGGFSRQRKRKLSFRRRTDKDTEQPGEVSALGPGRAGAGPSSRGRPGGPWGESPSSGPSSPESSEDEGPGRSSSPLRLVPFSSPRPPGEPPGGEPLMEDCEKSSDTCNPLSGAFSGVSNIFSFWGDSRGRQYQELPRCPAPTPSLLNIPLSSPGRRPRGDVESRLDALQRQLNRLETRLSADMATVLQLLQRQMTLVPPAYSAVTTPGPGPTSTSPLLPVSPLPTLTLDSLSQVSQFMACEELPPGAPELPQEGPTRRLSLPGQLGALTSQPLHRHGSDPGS
Experimental: The IC50 for hERG was greater than 10 μM. A generally accepted safety margin against hERG and other important cardiac targets is ≥30 (a safety margin is calculated as: IC50/Cmax, free or EC50/Cmax, free).

[5] = assay type: in vivo; conditions: mice, 10 mg/kg IP
Experimental: Mice received a 10 mg/kg IP dose of Formula 1. The animals were placed in the open field apparatus after 30 minutes (box of 0.5×0.5×0.5 m length, width and height) for a period of 5 min. The animals' walking distance and speed were evaluated and compared to the vehicle-treated group.

[6] = system: CCI-induced neuropathic pain; assay: CCI model in mice, IP route; assay type: in vivo; conditions: CCl model
Source text: IP route of administration was used for initial proof of principle studies with Formula 1. However, the chosen route of administration in most of the studies conducted with Formula 1 was either SC or PO. A brief protocol outline is provided in each section, for the purpose of understanding the results without elaborating on all the detailed procedures.
Table 7 summarizes the activity of Formula 1 in mice models of neuropathic pain following repeated daily administration using different routes of administration. […] Treatment with Formula 1 show activity without CNS effect.

[7] = 30 minutes after dosing, 5 min in open field

CC(C)(C)C(=O)O[C@@H]1[C@@H]2[C@H]3C[C@H](C[C@@H]1N3Cc1ccccn1)CN2C(=O)CC(F)(F)F (relative stereo) [Formula 1, (2S*,3S*,3aS*,6R*,7aR*)-1-(pyridin-2-ylmethyl)-4-(3,3,3-trifluoropropanoyl)octahydro-1H-2,6-methanopyrrolo[3,2-b]pyridin-3-yl pivalate]
efflux ratio (in vitro [1]): 10.4 | Papp A→B (in vitro [1]; apical-to-basolateral): 6.6 ×10⁻⁶ cm/s | Papp B→A (in vitro [1]; basolateral-to-apical): 68.3 ×10⁻⁶ cm/s | half-life (in vitro [2]; human liver microsomes): 8 min | microsomal CLint (in vitro [2]; human liver microsomes): 174 µL/min/mg | half-life (in vitro [2]; mouse liver microsomes): < 4 min | microsomal CLint (in vitro [2]; mouse liver microsomes): > 346 µL/min/mg | half-life (in vitro [2]; rat liver microsomes): < 4 min | microsomal CLint (in vitro [2]; rat liver microsomes): > 346 µL/min/mg | unique human metabolites [3]: No unique human metabolites were detected | total metabolites detected ([3]; in all three species): five | major metabolic pathways ([3]; mouse, rat and human liver microsomes): N-dealkylation and oxidation | IC50 (CYP1A2): > 10 µM | IC50 (CYP2C19): 5 µM | IC50 (CYP2C8): > 10 µM | IC50 (CYP2C9): 4 µM | IC50 (CYP2D6): > 10 µM | IC50 (CYP3A4): > 10 µM | concentration in feces after 8 h post-dosing ([4]; intravenous 5 mg/kg): greater than 1 μg/g | peak concentration in feces ([4]; intravenous 5 mg/kg): 33 µg/g | time to peak concentration in feces ([4]; intravenous 5 mg/kg): ≤ 5 min | concentration in feces after 8 h post-dosing ([4]; oral 50 mg/kg): greater than 1 μg/g | peak concentration in feces ([4]; oral 50 mg/kg): 150 µg/g | time to peak concentration in feces ([4]; oral 50 mg/kg): ≤ 60 min | IC50 (hERG): > 10 µM | walking distance and speed vs. vehicle-treated group [5]: No difference was found | Distance [5, 7]: 1.94 ± 0.89 m | Time spent in the center of the field [5, 7]: 34.82 ± 23.53 s | Dose of maximum activity [6]: 30 mg/kg | Duration of activity at maximum effect [6]: >4 H | Peak of activity (T) [6]: 2 H | Level of activity (% of maximum effect-baseline) ([6]; repeated daily administration): 33%
